Results on 88 molecules are retold here after ChEMBL document CHEMBL1157539, “Thousands of chemical starting points for antimalarial lead identification” (Nature, 2010).

The experiment relates to Plasmodium falciparum. Description: GSK_TCMDC: Inhibition of Plasmodium falciparum 3D7 in whole erythrocytes, using parasite LDH activity as an index of growth. The class given is functional, organism-based.

SMILES strings stand for the structures.

`CN1CCCc2cc(NC(=O)c3cc(-c4ccc(Cl)cc4)cs3)ccc2C1` had an XC50 (Plasmodium falciparum, 3D7) of 0.81 µM.

Under “Plasmodium falciparum, 3D7”, `CCN(CC)CCCC(C)Nc1c(-c2ccc(OC)cc2)cnc2ccccc12` (centres undefined) displayed an XC50 of 0.894 µM.

`CC(=O)c1cccc(NC(=O)NC2CCN(CCCCCNC(=O)/C=C/c3ccc(Cl)c(Cl)c3)CC2)c1` had an XC50 (Plasmodium falciparum, 3D7) of 0.835 µM.

`CC(C)c1cn2c3c(cc(C(=O)N[C@@H](Cc4ccccc4)[C@H](O)CNC4CCOCC4)cc13)N(C)S(=O)(=O)CC2` returned an XC50 (Plasmodium falciparum, 3D7) of 0.0545 µM.

Under “Plasmodium falciparum, 3D7”, `O=C(O)CCc1ccc(-c2c[nH]c3ncc(-c4ccc5ncccc5c4)cc23)cc1` registered an XC50 of 0.302 µM. Same read-out and setting: the same measure for `CCn1ccc2c(N3CCCC3=O)cc(C(=O)N[C@@H](Cc3ccccc3)[C@H](O)CNC(C)(C)CCCC(C)C)cc21`: 0.347 µM; for `O=S(=O)(Nc1ccc2nccc(N3CCNCC3)c2c1)c1ccc2c(Cl)cccc2c1`: 0.573 µM; for `CCC[C@@H]([C@@H](CC1CCCCC1)C(=O)N[C@H](C(=O)Nc1nccs1)[C@H](C)O)N(O)C=O`: 0.148 µM. On the same count and under the same terms, the same measure for `Oc1ccc(-c2ccccc2)cc1CN1CCCCC1`: 0.903 µM; for `Cc1cccc(-c2nn(-c3ccccc3)c3[nH]c(=O)c(CNC4CCCC4)cc23)c1`: 0.759 µM; for `c1cc(CNC2CCN(CC3CCCCC3)CC2)cc(-n2ccnc2)c1`: 0.65 µM. On the same count and under the same terms, the figure for `OC(CNCc1ccccc1OCc1ccccc1)c1cc(Br)cs1` (centres undefined) is 0.722 µM; for `Fc1ccc(Nc2ccnc3cc(-c4ccc(CNCCN5CCOCC5)o4)ccc23)c(Cl)c1` it is 0.186 µM.

Regarding `CCCC(=O)Nc1ccc(OCCCN(Cc2cccc(C(F)(F)F)c2)c2ccc(C#N)c(C(F)(F)F)c2)cc1`, the XC50 (Plasmodium falciparum, 3D7) is 1.09 µM. For the molecule `CCc1nc(N)nc(N)c1-c1ccc(Cl)cc1` [PYRIMETHAMINE], the XC50 amounted to 0.0318 µM. In addition, the XC50 (Plasmodium falciparum, 3D7) is 0.0595 µM. Molecule `CCc1ccc(C2CCN(CCCCNC(=O)c3ccc(NC(=O)c4ccc(Cl)cc4)cc3)CC2)c(OCC(=O)OC)c1` registered an XC50 (Plasmodium falciparum, 3D7) of 1.03 µM.

Under “Plasmodium falciparum, 3D7”, `CS(=O)(=O)Cc1ccc(Nc2nccc(N3CCCc4cc(NC(=O)Nc5cccc(C(F)(F)F)c5)ccc43)n2)cc1` registered an XC50 of 0.148 µM. Same read-out and setting: the figure for `O=C(N[C@@H](CC1CCCCC1)C(=O)NCCN1CCCCC1)c1ccc(O)c(-c2ccc(Cl)c(Cl)c2)c1` is 0.148 µM; for `CN1CCC=C(C(=O)NCC(C)(C)c2nc(-c3ccc(Cl)c(O)c3)c(-c3ccncc3)[nH]2)C1` it is 1 µM; for `CCCCCCCc1cc(=O)c2ccccc2[nH]1` it is 0.317 µM. On the same count and under the same terms, the figure for `CC(C)c1cc2c(ccc3nc(N)nc(N)c32)[nH]1` is 0.039 µM; for `CN(CCON1C(=N)N=C(N)NC1(C)C)c1ccccc1` it is 0.0194 µM; for `CN1CCCN(Cc2ccc(-c3cccc(NC(=O)c4cccc(F)c4)c3)cc2)CC1` it is 0.98 µM. As for `CC(=O)c1cccc2[nH]c(C(=O)NC3CCC(CCN4CCc5ccc(C#N)cc5C4)CC3)cc12` (centres undefined), the XC50 (Plasmodium falciparum, 3D7) came out at 0.842 µM. On the same count and under the same terms, the figure for `CCOC(=O)c1nc(-c2cccnc2)[nH]c1NC(=S)NCc1ccccc1` is 0.711 µM; for `CC(=O)N[C@@H]1c2cc(C(C)=O)ccc2OC(C)(C)[C@@H]1O` it is 0.983 µM. The same measure, in the same setting: the same measure for `Cc1sc2nc(CN3CCCC3)nc(-n3c(NCCO)nc4ccccc43)c2c1C`: 1.24 µM; for `O=C(NCCNc1ccnc(Nc2ccc(F)cc2)n1)Nc1ccc2c(c1)OCO2`: 0.682 µM; for `N#Cc1cc(C(=O)c2cc(Br)ccc2O)cn(-c2cc(Cl)cc(Cl)c2)c1=O`: 0.879 µM. Same read-out and setting: the figure for `NCCNc1ccc([N+](=O)[O-])cc1C(=O)Nc1cccc(Cl)c1` is 1.26 µM; for `CN(C)Cc1ccc2nc(-c3cccc(Cc4cc(Cl)ccc4OCc4ccc(Cl)cc4F)n3)[nH]c2c1` it is 1.13 µM; for `CC(C)(C)c1cc(NC2CC2)nc(-c2ccccn2)n1` it is 0.719 µM. For `CCCCc1cc(NCC)nc(Nc2ccc(OC)cc2)n1`, the XC50 (Plasmodium falciparum, 3D7) came out at 1.18 µM.

Molecule `Cc1cccc2nc(-c3ccc(-c4ccc(CN5CCN(CCO)CC5)cc4)s3)[nH]c12` returned an XC50 (Plasmodium falciparum, 3D7) of 0.712 µM.

`COc1ccc(C=Cc2cc(=N)c3ccccc3[nH]2)cc1` came in with an XC50 (Plasmodium falciparum, 3D7) of 0.969 µM. The same measure, in the same setting: the same measure for `N=C(N)Nc1nc(-c2cccc(NC(=O)NCc3cccc4ccccc34)c2)cs1`: 0.841 µM; for `O=C(Nc1ccc(OC2CCN(Cc3ccsc3)C2)c(Cl)c1)c1ccco1` (centres undefined): 0.602 µM; for `Cc1nccc2c(NC(=O)N[C@@H]3CCN(c4ncc(C(F)(F)F)cc4Br)C3)cccc12`: 0.364 µM. Still for that read-out and setting: the figure for `Cc1nnsc1C(=O)Nc1cccc(-c2cccc(-c3nc4ccccc4[nH]3)c2)c1` is 0.437 µM. Still for that read-out and setting: the figure for `CC(=O)Oc1c(C2C=CCCC2)c(OC(C)=O)c2ccccc2c1OC(C)=O` (centres undefined) is 0.605 µM; for `O=C(Cc1cccc(OCCCN(Cc2cccc(C(F)(F)F)c2Cl)CC(c2ccccc2)c2ccccc2)c1)NCc1ccco1` it is 0.937 µM. In turn, `O=C(Nc1ccc(Cl)cc1)N(CC1CC2CCC(C1)N2Cc1ccc(C(F)(F)F)cc1)c1ccc(N2CCOCC2)c(F)c1` (centres undefined) gave an XC50 (Plasmodium falciparum, 3D7) of 1.07 µM. The molecule `COc1ccc(CNCCCCCCCNCc2ccc(Cl)c(Cl)c2)cc1Cl` displayed an XC50 (Plasmodium falciparum, 3D7) of 1.22 µM. On the same count and under the same terms, the same measure for `CN(C)CCCOc1ccc(CNCC(C)(C)c2nc(-c3ccc(Cl)c(O)c3)c(-c3ccncc3)[nH]2)cc1`: 0.708 µM; for `CC(=O)C1=NN(c2ccc(C)cc2)C(c2cccs2)N1c1ccccc1` (centres undefined): 0.338 µM; for `COc1cccc(NC(=O)Nc2ccc(-c3oc(C(=O)NCC(c4ccccc4)N(C)C)cc3-c3ccncc3)cc2)c1` (centres undefined): 1.83 µM. On the same count and under the same terms, the same measure for `O=C(Nc1cccnc1)c1ccc(-c2cc3ccncc3cc2OC2CCNCC2)s1`: 0.884 µM; for `COc1ccc2ncc(F)c(NC(=O)C3CCC(NCc4cc5cc(F)cc(F)c5[nH]4)CC3)c2n1` (centres undefined): 1.09 µM. The same measure, in the same setting: the same measure for `Cc1[nH]c(C)c(-c2ccc(CCc3ccc(C(F)(F)F)cc3)nc2)c(=O)c1Cl`: 0.0881 µM. In the case of `O=C(NC(Nc1ccc([N+](=O)[O-])cc1)C(Cl)(Cl)Cl)c1cccc(Cl)c1` (centres undefined), the XC50 (Plasmodium falciparum, 3D7) is 0.863 µM. On to `COc1ccc(C(=O)N2CCN(c3ccc([N+](=O)[O-])c(NC4CC4)c3)CC2)cc1Br`, for which the XC50 (Plasmodium falciparum, 3D7) is 0.797 µM. Same read-out and setting: the same measure for `Oc1ccccc1CCNC1CCc2ccccc2C1` (centres undefined): 0.928 µM; for `Cc1nc2nc(N)nc(N)c2c(C)c1Cc1c(Cl)cccc1Cl`: 0.0489 µM; for `Cc1cccc2nc(-c3ccc(-c4cccc(CNCCN5CCNCC5)c4)cc3)[nH]c12`: 1.23 µM. In the case of `COc1ccccc1/C=C/C(=O)NC1CCC(CCN2CCc3ccc(-c4cc(C)no4)cc3CC2)CC1` (centres undefined), the XC50 (Plasmodium falciparum, 3D7) stood at 0.961 µM. In the case of `OC1(c2ccc(Br)cc2)CCN(C2CCN(Cc3ccccc3)CC2)CC1`, the XC50 (Plasmodium falciparum, 3D7) turned out to be 0.597 µM. The molecule `O=C(Cc1ccc(F)cc1)NC1CCN(c2ccnc3cc(Cl)ccc23)C1` (centres undefined) came in with an XC50 (Plasmodium falciparum, 3D7) of 0.484 µM. Same read-out and setting: the figure for `Cc1nc2nc(N)nc(N)c2c(C)c1Cc1ccccc1I` is 0.351 µM.

With `CC(=O)Nc1cc(C(=O)Nc2ccc(C3=NCCN3)cc2)ccc1C(=O)Nc1ccc(C2=NCCN2)cc1`, for the setting “Plasmodium falciparum, 3D7”, the XC50 came to 0.133 µM. The same measure, in the same setting: the same measure for `COc1cc(-c2cc3cc(Cl)c(Cl)cc3[nH]2)ccc1C(=O)NCCC1CCCN1C` (centres undefined): 0.969 µM. In the case of `COc1cc(F)c2ncc(C#N)c(CCN3CCC(NCc4ccc5c(c4)OCCO5)CC3)c2c1`, under “Plasmodium falciparum, 3D7”, the XC50 was determined as 0.428 µM. Same read-out and setting: the figure for `CC(C)N(CCOc1ccc2c(c1)N(C(=O)Nc1ccc(Cl)c(Cl)c1)CC2)C(C)C` is 0.367 µM; for `COC(=O)c1ccc2[nH]cc(C3CCN(CCC4CCN(C(=O)/C=C/c5ccc(Cl)c(Cl)c5)CC4)CC3)c2c1` it is 0.512 µM. Same read-out and setting: the figure for `COc1ccccc1C(=O)C1CCCN(C(=O)c2ccccc2C(F)(F)F)C1` (centres undefined) is 0.602 µM; for `Cc1cc(N[C@@H](Cc2ccccc2)C(=O)Nc2ccccc2)nc(NCCc2ccccn2)n1` it is 0.874 µM. Still for that read-out and setting: the same measure for `O=C(Cc1cccc(Cl)c1)Nc1cccc(-c2c[nH]c3nc(Nc4cccc(OCc5ccccc5)c4)ncc23)c1`: 1.04 µM. `O=C(/C=C/c1ccc(Cl)c(Cl)c1)NCCCCCN1CCC(CCNC(=O)/C=C/c2ccc(Cl)c(Cl)c2)CC1` registered an XC50 (Plasmodium falciparum, 3D7) of 0.561 µM.

As for `COc1cc(Nc2ccnc3ccc(C(C)(C)C)cc23)cc(OC)c1OC`, the XC50 (Plasmodium falciparum, 3D7) was 0.61 µM. Same read-out and setting: the same measure for `C=CCn1c(Sc2ccc(C#N)c([N+](=O)[O-])c2)nnc1-c1cccc(Cl)c1`: 0.301 µM; for `COc1cc2nc(NCCc3ccccc3)nc(NCc3cnn(C)c3C)c2cc1OC`: 0.711 µM; for `CCC(=O)Nc1ccc(C(O)CN2CCC3(C=Cc4ccccc4O3)CC2)cc1` (centres undefined): 1.2 µM. The molecule `COc1ccc(C(=O)N2CCC3(CC2)C(=O)N(CC(=O)NC2CCCCC2)CN3c2ccccc2)c(OC)c1` yielded an XC50 (Plasmodium falciparum, 3D7) of 0.224 µM. The same measure, in the same setting: the figure for `COc1ccc2nccc([C@H](O)CN3CCC(NCc4nc5cccc(F)c5[nH]4)CC3)c2c1` is 0.705 µM; for `CN(C)C(=O)CC(=O)NCc1c(Cl)cccc1Cl` it is 0.203 µM; for `Nc1nc(N)c2c(Oc3cccc4ccccc34)cccc2n1` it is 1.01 µM. Same read-out and setting: the figure for `CN1CCN(Cc2cccc(-c3cc4nccc(Nc5ccc(Oc6ccccc6)cc5)c4cc3Cl)c2)CC1` is 0.728 µM.

On to `Nc1cc(C(F)(F)F)ccc1Cl`, for which the XC50 (Plasmodium falciparum, 3D7) turned out to be 0.736 µM. The same measure, in the same setting: the figure for `CC1(C)N=C(N)N=C(N)N1O` is 0.192 µM; for `Cc1ccccc1C1CCN(C2CCC(NC(=O)/C=C/c3ccc4c(c3)OC(F)(F)O4)CC2)CC1` (centres undefined) it is 0.666 µM. On the same count and under the same terms, the same measure for `COc1ccc(CCNCCCCNCCc2ccc(OC)c3ccccc23)c2ccccc12`: 0.453 µM. On the same count and under the same terms, the same measure for `O=C(Cc1cccc2ccccc12)N1CCc2cc3nccc(N4CCN5CCC[C@H]5C4)c3cc21`: 0.777 µM; for `CC(C)(CNC(=O)/C=C/c1ccc(C(F)(F)F)cc1)CNc1cc(=O)c2ccccc2[nH]1`: 0.912 µM; for `CN(C)CCC1CCN(CCS(=O)(=O)c2cccc(Nc3ccc(-c4cccc(F)c4)cn3)c2)CC1`: 1.07 µM. Consider `c1ccc(CCNc2ccnc(Nc3ccc4[nH]nnc4c3)n2)cc1`, for which the XC50 (Plasmodium falciparum, 3D7) came out at 0.863 µM.

`CC(C)[C@H](NC(=O)c1ccc(O)c(-c2ccc(Cl)c(Cl)c2)c1)C(=O)NCCN1CCCCC1` yielded an XC50 (Plasmodium falciparum, 3D7) of 0.339 µM.

`COc1ccc2[nH]c(C)cc(=NN=Cc3cccc(Cl)c3)c2c1` displayed an XC50 (Plasmodium falciparum, 3D7) of 0.632 µM.

`CCN(CC)c1ccc(C(=O)Cn2ccc(=N)cc2)cc1` returned an XC50 (Plasmodium falciparum, 3D7) of 0.998 µM. Same read-out and setting: the figure for `COc1ccc2nccc([C@@H](O)CN3CCC(c4cc(-c5ccc(Cl)cc5)[nH]n4)CC3)c2n1` is 0.737 µM.
